This note sets out measurements from patent US6656956B2, “Benzimidazole derivatives, processes for preparing them and their use as pharmaceutical compositions” (Boehringer Ingelheim Pharma KG, priority 2001, dated 2003).

This experiment has as its target T1, rh beta tryptase (Homo sapiens, UniProt Q15661).
T1 construct: purchased Promega
The experiment is described as follows: tryptase inhibition in vitro test (cleavage of N-p-tosyl-Gly-Pro-Lys-para-nitroaniline, p-nitroaniline measured at 405 nm). In kind it is biochemical. The following applies: rh beta tryptase 0.91 U/ml, substrate 0.6 mM, Tris HCl buffer with calcium and heparin, pH 7.4, 37° C., 5 minutes incubation; read-out: Tryptase-inhibiting activity. The essentials: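 Chromogenic assay in 100 mM Tris HCl pH 7.4 with 5 mM calcium and […], 0.91 U/ml enzyme, 0.6 mM substrate. Compound preincubated 5 min, then p-nitroaniline at 405 nm after 5 min, 37° C. Screening at 10 μM as % inhibition; IC50 determined when inhibition exceeded 70%.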

Molecules are shown by their SMILES. Counter-ions that a name gives are not always drawn.

T1 sequence (Q15661 31-275): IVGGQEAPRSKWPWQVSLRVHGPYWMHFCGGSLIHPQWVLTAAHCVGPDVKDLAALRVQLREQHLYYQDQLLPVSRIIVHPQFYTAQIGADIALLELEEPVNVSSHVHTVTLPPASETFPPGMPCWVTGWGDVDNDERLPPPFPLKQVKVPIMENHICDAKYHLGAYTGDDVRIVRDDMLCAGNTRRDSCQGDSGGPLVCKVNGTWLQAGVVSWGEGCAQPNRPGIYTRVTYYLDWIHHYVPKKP

For the compound `CN(C(=O)CN1CCC(Nc2ccccc2I)CC1)c1ccc2c(c1)nc(CCc1ccc(C(=N)N)cc1)n2C` [Example 37, N-{2-[2-(4-Amidinophenyl)-ethyl]-1-methyl-benzimidazol-5-yl}-N-methyl-2-[4-(2-iodophenylamino)-piperid-1-yl]-acetamide, dihydrochloride], the IC50 lay within 0.5 to 3 nM.

As to `CC(C)c1ccc(NC2CCN(CC(=O)N(C)c3ccc4c(c3)nc(CCc3ccc(C(=N)N)cc3)n4C)CC2)c(Br)c1` [Example 68, N-{2-[2-(4-Amidinophenyl)-ethyl]-1-methyl-benzimidazol-5-yl}-N-methyl-2-[4-(2-bromo-4-isopropylamino)-piperid-1-yl]-acetamide, dihydrochloride], the IC50 lay in the range of 31 to 1000 nM.

As to `CN(C(=O)CN1CCC(Nc2cccc(Cl)c2)CC1)c1ccc2c(c1)nc(CCc1ccc(C(=N)N)cc1)n2C` [Example 106, N-{2-[2-(4-Amidinophenyl)-ethyl]-1-methyl-benzimidazol-5-yl}-N-methyl-2-[4-(3-chlorophenylamino)-piperid-1-yl]-acetamide, dihydrochloride], the IC50 lay within 0.5 to 3 nM. In the case of `CN(C(=O)CN1CCC(NCc2ccccn2)CC1)c1ccc2c(c1)nc(CCc1ccc(C(=N)N)cc1)n2C` [Example 29, N-{2-[2-(4-Amidinophenyl)-ethyl]-1-methyl-benzimidazol-5-yl}-N-methyl-2-[4-(2-pyridylmethylamino)-piperid-1-yl]-acetamide, dihydrochloride], the IC50 fell in the range of 31 to 1000 nM.

`Cn1c(CCc2ccc(C(=N)N)cc2)nc2cc(N(Cc3cccc4ccccc34)C(=O)CN3CCC(Nc4ccncc4)CC3)ccc21` [Example 27, N-{2-[2-(4-Amidinophenyl)-ethyl]-1-methyl-benzimidazol-5-yl}-N-[naphth-1-ylmethyl]-2-[4-(4-pyridylamino)-piperid-1-yl]-acetamide, dihydrochloride]: the IC50 was in the range of 4 to 30 nM. As for `Cn1c(CCc2ccc(C(=N)N)cc2)nc2cc(NC(=O)CN3CCC(Nc4ccccn4)CC3)ccc21` [Example 52, N-{2-[2-(4-Amidinophenyl)-ethyl]-1-methyl-benzimidazol-5-yl}-2-[4-(2-pyridylamino)-piperid-1-yl]-acetamide, dihydrochloride], the figure is 31 to 1000 nM; as for `Cn1c(CCc2ccc(C(=N)N)cc2)nc2cc(N(Cc3cccc4ccccc34)C(=O)CN3CCC(NC(=O)c4ccccn4)CC3)ccc21` [Example 7, N-{2-[2-(4-Amidinophenyl)-ethyl]-1-methyl-benzimidazol-5-yl}-N-[naphth-1-ylmethyl]-2-[4-(2-pyridylcarboxylic acid amide)-piperid-1-yl]-acetamide, dihydrochloride], 4 to 30 nM; as for `CN(C(=O)CN1CCC(Nc2ccccn2)CC1)c1ccc2c(c1)nc(CCc1ccc(C(=N)N)cc1)n2C` [Example 28, N-{2-[2-(4-Amidinophenyl)-ethyl]-1-methyl-benzimidazol-5-yl}-N-methyl-2-[4-(2-pyridylamino)-piperid-1-yl]-acetamide, dihydrochloride], 4 to 30 nM. On to `Cn1c(CCc2ccc(C(=N)N)cc2)nc2cc(N(Cc3cccc4ccccc34)C(=O)CN3CCC(Nc4ccccc4Cl)CC3)ccc21` [Example 12, N-{2-[2-(4-Amidinophenyl)-ethyl]-1-methyl-benzimidazol-5-yl}-N-[naphth-1-ylmethyl]-2-[4-(2-chlorophenylamino)-piperid-1-yl]-acetamide, dihydrochloride], for which the IC50 was in the range of 0.5 to 3 nM.
